US12343350B2, “Istaroxime-containing intravenous formulation for the treatment of acute heart failure (AHF)” (Windtree Therapeutics, Inc., priority 2019, dated 2025)

Tested on: patients with Acute Decompensated Heart Failure
Assay: Clinical study of istaroxime 24 h i.v. infusion in Acute Decompensated Heart Failure, echocardiography
Assay type: in vivo, human
Experimental: Echocardiography was performed on patients according to international standards (see, for example, Lang R M et al., J Am Soc Echocardiogr 2005; 18(12):1440-63; Nagueh S F et al., Eur J Echocardiogr 2009; 10(2):165-93; Evangelista A et al., Eur J Echocardiogr 2008; 9(4):438-48). Echocardiography was performed by expert physicians or sonographers at the sites. Echocardiography was done at screening, baseline, 6 hours after infusion start, 24 hours after infusion start (just before the end of infusion), and 48 hours after infusion start.
The following parameters were recorded for each patient at each timepoint and centrally measured by the CoreLab: • 1. Cardiac dimension measures: • a. Left ventricle end diastolic diameter (EDD): measured with M-mode echocardiography at the level of mitral valve (MV) leaflets from parasternal long axis view (PLAX) (normal range [NR]: 42-59 mm males and 39-53 mm females); • b. Left ventricle end systolic diameter (ESD): measured with M-mode echocardiography at the level of mitral valve (MV) leaflets from PLAX (NR: 25-35 mm); • c. Left ventricle end diastolic volume (EDV): measured with M-mode echocardiography at the level of mitral valve (MV) leaflets from PLAX (NR: 67-155 mL males and 56-104 mL females); • d. Left ventricle end systolic volume (ESV): measured with M-mode echocardiography at the level of mitral valve (MV) leaflets from PLAX (NR: 22-58 mL males and 19-49 mL females); • e. Left atrium diameter (LAD): measured at end-ventricular systole with M-mode echocardiography from PLAX. (NR: 30-40 mm males and 27-38 mm females) • f. Left atrium area (LAA): measured from apical four chamber view ([…]); and • g. Left atrium volume (LAV): derived from area-length measured from apical four chamber view (NR: 18-58 mL males and 22-52 mL females). • 2. Left ventricle diastolic function parameters: • a. E wave: measured from mitral valve pulsed wave Doppler, is the peak velocity of early filling. […] A wave: measured from mitral valve pulsed wave Doppler is the peak velocity of late atrial filling. Not evaluable in patients with AF; • c. E wave deceleration time (EDT): measured from mitral valve pulsed wave Doppler represent the slope of the descending part of E wave; • d. E/A ratio: determines the type of diastolic filling pattern (normal E/A=1-2 and EDT=150-200 ms, abnormal relaxation E/A<1 and […], pseudonormal E/A=0.8-1.5; restrictive […] and EDT<160 ms). Not evaluable in patients with AF; • e. Ea: measured with tissue Doppler method at the lateral and septal side of the mitral annulus from apical four chamber view is the early diastolic velocity. The value has been calculated as the average between Ea lateral and Ea septal. ([…]) (see Nagueh S F et al., Eur J Echocardiogr. 2009; 10(2):165-93); • f. Aa: measured with tissue Doppler method at the lateral and septal side of the mitral annulus from apical four chamber view is the late atrial diastolic velocity. The value has been calculated as the average between Aa lateral and Aa septal. Not evaluable in patients with AF; and • g. E/Ea ratio: this is a derived measure from E and Ea value. This is highly correlated with left ventricle filling pressure and with prognosis in patients with HF. (NR: <13) (see Nagueh S F et al., supra). • 3. Left ventricle systolic function parameters: • a. Left ventricle ejection fraction (LVEF): measured with Simpson biplane method according to international recommendations from apical four chamber view and apical two chamber view. ([…]) (see Lang R M et al., J Am Soc Echocardiogr. 2005; 18(12):1440-63); and • b. Sa: measured with tissue Doppler method at the lateral and septal side of the mitral annulus from apical four chamber view. The value has been calculated as the average between Sa lateral and Sa septal. […] Overall cardiac contraction parameters: • a. […]

[1] = 0.5 μg/kg/min i.v. for 24 h, at 48 hours
[2] = 0.5 μg/kg/min i.v., at 6 hours of infusion
[3] = 0.5 μg/kg/min i.v., at 24 hours of infusion
[4] = 1.0 μg/kg/min i.v. for 24 h, at 48 hours
[5] = 1.0 μg/kg/min i.v., at 6 hours of infusion
[6] = 1.0 μg/kg/min i.v., at 24 hours of infusion

SMILES: C[C@]12CCC(=NOCCN)C[C@@H]1C(=O)C[C@@H]1[C@@H]2CC[C@]2(C)C(=O)CC[C@@H]12 [Istaroxime, (3Z,5a)-3-[(2-aminoethoxy)imino]androstane-6,17-dione]
- CI change [1]: 0.191 ± 0.426 l/min/m^2
- CO change [1]: 0.350 ± 0.788 L/min
- E/A ratio change [1]: −0.278 ± 1.043
- E/e′ ratio change [1]: −2.570 ± 3.654
- LVEF change [1]: 1.28 ± 3.693%
- SV change [1]: 4.815 ± 9.832 ml/beat
- SVI change [1]: 2.762 ± 5.603 ml/beat/m^2
- Sa change [1]: 0.224 ± 0.811 cm/s
- A wave change [2]: 1.76 ± 13.572 cm/s
- CI change [2]: 0.209 ± 0.445 l/min/m2
- CO change [2]: 0.385 ± 0.843 L/min
- E wave change [2]: -3.33 ± 14.764 cm/s
- E/A ratio change [2]: −0.286 ± 0.866
- E/e′ ratio change [2]: −3.183 ± 5.628
- EDT change [2]: 6.83 ± 47.921 ms
- LAA change [2]: −0.33 ± 1.885 cm^2
- LAV change [2]: -1.16 ± 11.265 mL
- S Right V change [2]: 1.25 ± 2.185 cm/s
- SV change [2]: 7.724 ± 11.752 ml/beat
- SVI change [2]: 4.198 ± 6.218 ml/beat/m2
- Sa Left V change [2]: 0.613 ± 1.035 cm/s
- e′ change [2]: 0.61 ± 1.010 cm/s
- A wave change [3]: 5.13 ± 10.990 cm/s
- CI change [3]: 0.264 ± 0.369 l/min/m2
- CO change [3]: 0.486 ± 0.696 L/min
- E wave change [3]: -8.14 ± 17.640 cm/s
- E/A ratio change [3]: −0.647 ± 0.812
- E/e′ ratio change [3]: −4.548 ± 4.754
- EDT change [3]: 12.88 ± 54.954 ms
- LAA change [3]: −1.70 ± 2.463 cm^2
- LAV change [3]: -7.94 ± 13.269 mL
- S Right V change [3]: 1.10 ± 1.780 cm/s
- SV change [3]: 9.725 ± 12.192 ml/beat
- SVI change [3]: 5.333 ± 6.664 ml/beat/m2
- Sa Left V change [3]: 0.679 ± 0.907 cm/s
- e′ change [3]: 0.94 ± 1.089 cm/s
- CI change [4]: 0.205 ± 0.407 l/min/m^2
- CO change [4]: 0.368 ± 0.735 L/min
- E/A ratio change [4]: −0.356 ± 0.967
- E/e′ ratio change [4]: −2.218 ± 3.193
- LVEF change [4]: 2.06 ± 4.975%
- SV change [4]: 5.203 ± 8.078 ml/beat
- SVI change [4]: 2.913 ± 4.572 ml/beat/m^2
- Sa change [4]: 0.257 ± 0.771 cm/s
- A wave change [5]: 5.56 ± 17.280 cm/s
- CI change [5]: 0.140 ± 0.434 l/min/m2
- CO change [5]: 0.228 ± 0.760 L/min
- E wave change [5]: -9.13 ± 17.464 cm/s
- E/A ratio change [5]: −0.317 ± 0.898
- E/e′ ratio change [5]: −2.028 ± 3.652
- EDT change [5]: 20.37 ± 50.849 ms
- LAA change [5]: −0.84 ± 2.421 cm^2
- LAV change [5]: -4.92 ± 14.390 mL
- S Right V change [5]: 2.00 ± 1.907 cm/s
- SV change [5]: 7.269 ± 8.134 ml/beat
- SVI change [5]: 4.187 ± 4.641 ml/beat/m2
- Sa Left V change [5]: 0.908 ± 0.936 cm/s
- e′ change [5]: 0.01 ± 1.154 cm/s
- A wave change [6]: 11.10 ± 16.498 cm/s
- CI change [6]: 0.140 ± 0.443 l/min/m2
- CO change [6]: 0.239 ± 0.786 L/min
- E wave change [6]: -14.24 ± 24.416 cm/s
- E/A ratio change [6]: −0.722 ± 1.068
- E/e′ ratio change [6]: −3.191 ± 2.623
- EDT change [6]: 9.79 ± 52.212 ms
- LAA change [6]: −2.56 ± 2.972 cm^2
- LAV change [6]: -13.81 ± 17.198 mL
- S Right V change [6]: 1.55 ± 2.012 cm/s
- SV change [6]: 9.339 ± 8.875 ml/beat
- SVI change [6]: 5.318 ± 4.955 ml/beat/m2
- Sa Left V change [6]: 0.803 ± 1.023 cm/s
- e′ change [6]: 0.91 ± 1.792 cm/s
